Drawing on patent EP4631938A1, “NITROGEN-CONTAINING HETEROCYCLE WITH SEROTONIN RECEPTOR-BINDING ACTIVITY AND CARBOCYCLIC DERIVATIVE” (Shionogi & Co., Ltd, priority 2022, dated 2024), this text covers Ki for 29 molecules.

As usually defined, the Ki is a dissociation constant, usually derived from enzyme kinetics or from competition with a known ligand.

Experiment [1] deals with T1, human recombinant 5-HT2A receptor (Homo sapiens, UniProt P28223).
T1 construct: expressed in transfected cells; host or cells: Jump-In HEK cells (membrane preparation)
Briefly: Test Example 1-2: 5-HT2A receptor binding inhibition test ([3H]-Ketanserin; non-specific ligand Ketanserin). The settings on record: [3H]-Ketanserin; non-specific binding with 500 µmol/L Ketanserin; room temperature (25°C), 1.5 hours; read-out: h 5-HT2A Ki. As for the experimental part: The Kd value is calculated when the lot of the cell membrane is changed. 1 mmol/L non-specific binding calculating compound dissolved in DMSO or DMSO is previously dispensed to the microplate by 0.5 µL, and the cell membrane is diluted with an Assay buffer. The radioactive ligand solution is diluted step by step, and counts are checked with a liquid scintillator. The Assay buffer containing diluted cell membranes is dispensed by 50 µL/well into the microplate. The radioactive ligand solution is then dispensed by 50 µL/well into the microplate and the plate is sealed. The microplate is allowed to stand for 1.5 hours at room temperature (25°C). During this time, 50 mmol/L Tris-HCl (pH 7.4) is dispensed by 50 µL/well into the UniFilter plate and allowed to stand at 4°C for 1 hour or longer. Thereafter, filtration is performed with a Cell Harvester (PerkinElmer). The radioactive ligand solution is dispensed by 10 µL/well into empty wells of the UniFilter plate. After drying the UniFilter plate at room temperature, MicroScinti20 is dispensed by 50 µL/well into the UniFilter plate, and the plate is sealed. UniFilter plate is allowed to stand at room temperature overnight. The radioactivity of [^3H]-Ketanserin bound to the 5-HT2A receptor is measured using Microbeta2 (PerkinElmer) at a measurement time of 1 min/well. The Saturation curve is drawn from the measured value, and the Kd value is calculated from the slope of the Scatchard Plot.
A compound solution dissolved in DMSO is dispensed to a microplate by 0.5 µL, and a cell membrane and a hot ligand are each diluted with an Assay buffer. The Assay buffer containing diluted cell membrane is then dispensed by 50 µL/well into the microplate. The radioactive ligand solution is then dispensed by 50 µL/well into the microplate and the plate is sealed. Thereafter, the microplate is allowed to stand at room temperature (25°C) for 1.5 hours. During this time, 50 mmol/L Tris-HCl (pH 7.4) is dispensed by 50 µL/well into the UniFilter plate and allowed to stand at 4°C for 1 hour or longer. Thereafter, filtration is performed with a Cell Harvester (PerkinElmer). After drying the UniFilter plate at room temperature, MicroScinti20 is dispensed by 50 µL/well into the UniFilter plate, and the plate is sealed. UniFilter plate is allowed to stand at room temperature overnight. The radioactivity of [^3H]-Ketanserin bound to the 5-HT2A receptor is measured using Microbeta2 (PerkinElmer) at a measurement time of 1 min/well. Non-specific binding is calculated from the radioactivity of [^3H]-Ketanserin in the presence of 500 µmol/L Ketanserin of unlabeled ligand, and total binding is calculated from the radioactivity of [^3H]-Ketanserin in the absence of the compound of the present invention (Vehicle). Finally, the Ki value is calculated from the dose-response curve.
(§1) (The binding activity of the compound according to the present invention is calculated from the following binding inhibition rate (%).) Inhibition rate (%) = [1−(c−a)/(b−a)] × 100 [formula] • a; average cpm of non-specific binding • b; average cpm of total binding • c; cpm in the presence of the test compound
(§2) The compounds of the present invention were tested essentially as described above.

Experiment [2] addresses T2, human recombinant 5-HT2C receptor (Homo sapiens, UniProt P28335).
T2 construct: expressed in transfected cells; host or cells: Jump-In HEK cells (membrane preparation)
T2 sequence (P28335 33-458): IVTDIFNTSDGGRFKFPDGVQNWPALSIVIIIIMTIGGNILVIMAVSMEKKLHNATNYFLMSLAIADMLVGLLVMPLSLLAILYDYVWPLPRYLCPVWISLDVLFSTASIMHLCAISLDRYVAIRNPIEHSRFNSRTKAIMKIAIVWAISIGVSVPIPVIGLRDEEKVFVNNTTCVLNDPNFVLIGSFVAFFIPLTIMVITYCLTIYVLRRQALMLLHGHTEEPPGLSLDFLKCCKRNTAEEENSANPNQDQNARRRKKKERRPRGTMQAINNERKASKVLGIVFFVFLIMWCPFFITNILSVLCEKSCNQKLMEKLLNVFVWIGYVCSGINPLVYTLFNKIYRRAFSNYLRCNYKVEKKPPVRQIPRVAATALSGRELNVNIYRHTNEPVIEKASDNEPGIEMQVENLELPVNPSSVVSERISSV
Briefly: Test Example 2: 5-HT2C receptor binding inhibition test ([3H]-Mesulergine; non-specific ligand Serotonin HCl). The settings on record: human serotonin 5-HT2C receptor binding activity. Here is the method: The Kd value is calculated when the lot of the cell membrane is changed. 1 mmol/L non-specific binding calculating compound dissolved in DMSO or DMSO is previously dispensed to the microplate by 0.5 µL, and the cell membrane is diluted with an Assay buffer. The radioactive ligand solution is diluted step by step, and counts are checked with a liquid scintillator. The Assay buffer containing diluted cell membranes is dispensed by 50 µL/well into the microplate. The radioactive ligand solution is then dispensed by 50 µL/well into the microplate and the plate is sealed. The microplate is allowed to stand at 37°C for 2 hours. During this time, 50 mmol/L Tris-HCl (pH 7.4) is dispensed by 50 µL/well into the GF/B UniFilter plate and allowed to stand at 4°C for 1 hour or longer. Thereafter, filtration is performed with a Cell Harvester (PerkinElmer). The radioactive ligand solution is dispensed by 10 µL/well into empty wells of the GF/B UniFilter plate. After drying the GF/B UniFilter plate at room temperature, MicroScinti20 is dispensed by 50 µL/well into the GF/B UniFilter plate, and the plate is sealed. GF/B UniFilter plate is allowed to stand at room temperature overnight. The radioactivity of [^3H]-Mesulergine bound to the 5-HT2C receptor is measured using Microbeta2 (PerkinElmer) at a measurement time of 1 min/well. The Saturation curve is drawn from the measured value, and the Kd value is calculated from the slope of the Scatchard Plot.
A compound solution dissolved in DMSO is dispensed to a microplate by 0.5 µL, and a cell membrane and a hot ligand are each diluted with an Assay buffer. The Assay buffer containing diluted cell membrane is then dispensed by 50 µL/well into the microplate. The radioactive ligand solution is then dispensed by 50 µL/well into the microplate and the plate is sealed. The microplate is then allowed to stand at 37°C for 2 hours. During this time, 50 mmol/L Tris-HCl (pH 7.4) is dispensed by 50 µL/well into the GF/B UniFilter plate and allowed to stand at 4°C for 1 hour or longer. Thereafter, filtration is performed with a Cell Harvester (PerkinElmer). After drying the GF/B UniFilter plate at room temperature, MicroScinti20 is dispensed by 50 µL/well into the GF/B UniFilter plate, and the plate is sealed. GF/B UniFilter plate is allowed to stand at room temperature overnight. The radioactivity of [^3H]-Mesulergine bound to the 5-HT2C receptor is measured using Microbeta2 (PerkinElmer) at a measurement time of 1 min/well. Non-specific binding is calculated from the radioactivity of [^3H]-Mesulergine in the presence of 500 µmol/L Serotonin HCl of unlabeled ligand, and total binding is calculated from the radioactivity of [^3H]-Mesulergine in the absence of the compound of the present invention (Vehicle). Finally, the Ki value is calculated from the dose-response curve.
as §1, §2

T1 sequence (P28223 whole entry): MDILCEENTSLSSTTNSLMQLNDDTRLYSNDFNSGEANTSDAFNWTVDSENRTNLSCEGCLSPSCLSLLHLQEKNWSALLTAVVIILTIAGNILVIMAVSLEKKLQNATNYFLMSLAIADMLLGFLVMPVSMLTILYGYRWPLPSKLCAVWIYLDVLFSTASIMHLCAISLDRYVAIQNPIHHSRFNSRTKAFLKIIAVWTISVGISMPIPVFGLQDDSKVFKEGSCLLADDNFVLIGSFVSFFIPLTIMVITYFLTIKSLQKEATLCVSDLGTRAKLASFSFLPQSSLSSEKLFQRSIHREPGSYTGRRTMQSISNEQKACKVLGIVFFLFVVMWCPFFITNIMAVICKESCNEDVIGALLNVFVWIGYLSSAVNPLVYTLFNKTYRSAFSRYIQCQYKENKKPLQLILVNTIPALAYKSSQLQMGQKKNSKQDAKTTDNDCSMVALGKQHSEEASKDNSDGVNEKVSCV

For `Cc1cc(OC(F)(F)F)cnc1Nc1cc(-c2c(C)cnn2C)c(OCCO)cn1` [Compound I-180], the Ki in experiment [1] was 0.346 nM; in experiment [2], 1.86 nM.

In the case of `Cc1nc(C)c(-c2cc(Nc3ncc(OC(F)(F)F)cc3C)ncc2OCCO)c(C)n1` [Compound I-181], the Ki in experiment [1] stood at 0.984 nM; in experiment [2] it was 3.62 nM.

With `CC(C)Oc1ccc(Nc2cc(-c3c(Br)cnn3C)c(OCCO)cn2)nc1` [Compound I-182], the Ki in experiment [1] turned out to be 0.475 nM; in experiment [2] it was 4.75 nM.

On to `Cc1cnn(C)c1-c1cc(Nc2ncc(OC(F)(F)F)cc2Cl)ncc1OCCO` [Compound I-183], for which the results for the Ki in experiment [1] and in experiment [2] were 0.271 nM and 1.22 nM, respectively.

`COCc1nc(C)c(-c2cc(Nc3ncc(C(F)(F)F)cc3F)c(F)cc2OCCO)c(C)n1` [Compound I-184]: the inhibition constant (Ki) in experiment [1] came out at 3.84 nM; in experiment [2], 2.98 nM.

As to `Cn1ncc(Br)c1-c1cc(Nc2ccc(OC3CC3)cn2)ncc1OCCO` [Compound I-185], the Ki in experiment [1] was found to be 0.42 nM; in experiment [2] it was 2.76 nM.

Take `COCc1nc(C)c(-c2cc(Nc3ncc(OC(F)(F)F)cc3C)ncc2OCCO)c(C)n1` [Compound I-186]: the inhibitory constant (Ki) in experiment [1] stood at 1.75 nM; in experiment [2], 1.73 nM.

Regarding `Cn1ncc(C#N)c1-c1cc(Nc2ncc(OC(F)(F)F)cc2Cl)ncc1OCCO` [Compound I-187], the inhibition constant (Ki) in experiment [1] is 0.183 nM; in experiment [2], 2.9 nM.

Consider `Cn1ncc(C#N)c1-c1cc(Nc2ccc(-c3ccc(F)cc3)cn2)ncc1OCCO` [Compound I-188], for which the Ki in experiment [1] amounted to 0.181 nM; in experiment [2], 1.87 nM.

As to `Cn1ncc(C#N)c1-c1cc(Nc2ccc(-c3ccc(Cl)cc3)cn2)ncc1OCCO` [Compound I-189], the Ki came out at 0.217 nM in experiment [1] and 0.663 nM in experiment [2].

For the molecule `Cn1ncc(C#N)c1-c1nc(Nc2ccc(-c3ccc(F)cc3)cn2)c(F)cc1OCCO` [Compound I-190], the inhibition constant (Ki) turned out to be 0.493 nM in experiment [1] and 9.08 nM in experiment [2].

Regarding `Cn1ncc(C#N)c1-c1nc(Nc2ccc(-c3ccc(Cl)cc3)cn2)c(F)cc1OCCO` [Compound I-191], the Ki in experiment [1] is 0.473 nM; in experiment [2], 5.29 nM.

Regarding `COCc1nc(C)c(-c2cc(Nc3ccc(C4CC(F)(F)C4)cn3)ncc2OCCO)c(C)n1` [Compound I-192], the Ki in experiment [1] is 2.31 nM; in experiment [2], 9.15 nM.

For the molecule `COCc1nc(C)c(-c2nc(Nc3ccc(C4CCC4)cn3)c(F)cc2OCCO)c(C)n1` [Compound I-193], the inhibitory constant (Ki) in experiment [1] came to 3.43 nM; in experiment [2], 3.76 nM.

For `COCc1nc(C)c(-c2cc(Nc3ncc(C4CC(F)(F)C4)cc3Cl)ncc2OCCO)c(C)n1` [Compound I-195], the inhibitory constant (Ki) in experiment [1] was 6.75 nM; in experiment [2], 2.1 nM.

Regarding `COCc1nc(C)c(-c2cc(Nc3ncc(OC(F)(F)F)cc3OC)ncc2OCCO)c(C)n1` [Compound I-196], the Ki stood at 4.46 nM in experiment [1] and 5.17 nM in experiment [2].

Turning to `Cc1nc(C)c(-c2cc(Nc3ncc(C(F)(F)F)cc3F)c(F)cc2OC[C@H](C)O)c(C)n1` [Compound I-197], the figures for the Ki in experiment [1] and in experiment [2] were 2.83 nM and 65.6 nM, respectively.

`COCc1nc(C)c(-c2cc(Nc3ncc(C(F)(F)F)cc3F)ncc2OCCO)c(C)n1` [Compound I-199]: the inhibition constant (Ki) in experiment [1] was found to be 6.09 nM; in experiment [2], 5.98 nM.

Take `COCc1nc(C)c(-c2cc(Nc3ncc(C(F)(F)F)cc3Cl)ncc2OCCO)c(C)n1` [Compound I-201]: the Ki in experiment [1] amounted to 2.26 nM; in experiment [2], 2.54 nM.

Consider `Cc1ncnc(C)c1-c1cc(Nc2ncc(C(F)(F)F)cc2Cl)ncc1OCCO` [Compound I-202], for which the results for the inhibitory constant (Ki) in experiment [1] and in experiment [2] were 0.828 nM and 9.12 nM, respectively.

Regarding `Cc1nc(COC(F)F)nc(C)c1-c1cc(Nc2ncc(C(F)(F)F)cc2Cl)ncc1OCCO` [Compound I-203], the inhibitory constant (Ki) in experiment [1] turned out to be 1.97 nM; in experiment [2] it was 1.82 nM.

For `Cc1nc(COC(C)C)nc(C)c1-c1cc(Nc2ncc(C(F)(F)F)cc2Cl)ncc1OCCO` [Compound I-204], the Ki in experiment [1] turned out to be 2.35 nM; in experiment [2], 2.7 nM.

As to `COCCOCc1nc(C)c(-c2cc(Nc3ncc(C(F)(F)F)cc3Cl)ncc2OCCO)c(C)n1` [Compound I-205], the values for the Ki in experiment [1] and in experiment [2] were 2.94 nM and 0.752 nM, respectively.

With `Cc1nc(C2CC2)nc(C)c1-c1cc(Nc2ncc(C(F)(F)F)cc2Cl)ncc1OCCO` [Compound I-206], the inhibitory constant (Ki) in experiment [1] stood at 1.3 nM; in experiment [2], 1.78 nM.

With `Cc1nc(C2COC2)nc(C)c1-c1cc(Nc2ncc(C(F)(F)F)cc2Cl)ncc1OCCO` [Compound I-207], the inhibition constant (Ki) in experiment [1] amounted to 2.23 nM; in experiment [2], 6.02 nM.

On to `Cc1nc(C2CCC2)nc(C)c1-c1cc(Nc2ncc(C(F)(F)F)cc2Cl)ncc1OCCO` [Compound I-208], for which the inhibition constant (Ki) stood at 1.02 nM in experiment [1] and 1.67 nM in experiment [2].

Consider `Cc1nc(N2CCCC2)nc(C)c1-c1cc(Nc2ncc(C(F)(F)F)cc2Cl)ncc1OCCO` [Compound I-209], for which the Ki in experiment [1] came to 1.71 nM; in experiment [2], 5.63 nM.

With `COc1nc(C)c(-c2cc(Nc3ncc(C(F)(F)F)cc3Cl)ncc2OCCO)c(C)n1` [Compound I-210], the Ki in experiment [1] stood at 0.804 nM; in experiment [2] it was 3.67 nM.

Consider `Cc1nc(OCC(F)F)nc(C)c1-c1cc(Nc2ncc(C(F)(F)F)cc2Cl)ncc1OCCO` [Compound I-211], for which the results for the inhibitory constant (Ki) in experiment [1] and in experiment [2] were 0.706 nM and 1.89 nM, respectively.
